Blank lines part the entries; values can stand above or below the compound they belong to.
Columns and labels:
Mus musculus [1] = assay: Tested for antiinflammatory activity on mouse type II collagen arthritis as Paw swelling of all animals in each group on day 30 at intraperitoneal dose of 3 mg/kg; assay type: functional
Mus musculus [2] = assay: Incidence of disease (mouse type II collagen) was scored as the percentage of animals within each experimental group that exhibited joint or limb inflammation on day 37 at intraperitoneal dose of 0.75 mg/kg; assay type: functional
Mus musculus [3] = assay: Incidence of disease (mouse type II collagen) was scored as the percentage of animals within each experimental group that exhibited joint or limb inflammation on day 30 at intraperitoneal dose of 0.38 mg/kg; assay type: functional
Mus musculus [4] = assay: Tested for antiinflammatory activity on mouse type II collagen arthritis as Paw swelling of all animals in each group on day 44 at intraperitoneal dose of 1.5 mg/kg; assay type: functional
Mus musculus [5] = assay: Tested for antiinflammatory activity on mouse type II collagen arthritis as Paw swelling of all animals in each group on day 44 at intraperitoneal dose of 3 mg/kg; assay type: functional
Mus musculus [6] = assay: Tested for antiinflammatory activity on mouse type II collagen arthritis as Paw swelling of all animals in each group on day 23 at intraperitoneal dose of 1.5 mg/kg; assay type: functional
Mus musculus [7] = assay: Incidence of disease (mouse type II collagen) was scored as the percentage of animals within each experimental group that exhibited joint or limb inflammation on day 44 at intraperitoneal dose of 0.38 mg/kg; assay type: functional
Mus musculus [8] = assay: Tested for antiinflammatory activity on mouse type II collagen arthritis as Paw swelling of all animals in each group on day 30 at intraperitoneal dose of 1.5 mg/kg; assay type: functional
Mus musculus [9] = assay: Tested for antiinflammatory activity on mouse type II collagen arthritis as Paw swelling of all animals in each group on day 37 at intraperitoneal dose of 0.38 mg/kg; assay type: functional
Mus musculus [10] = assay: Tested for antiinflammatory activity on mouse type II collagen arthritis as Paw swelling of all animals in each group on day 23 at intraperitoneal dose of 0.75 mg/kg; assay type: functional
[11] = Concentration required to inhibit the growth of chang liver cells.; assay type: functional; conditions: Homo sapiens
Mus musculus [12] = assay: Tested for antiinflammatory activity on mouse type II collagen arthritis as Paw swelling of all animals in each group on day 37 at intraperitoneal dose of 0.75 mg/kg; assay type: functional
Mus musculus [13] = assay: Incidence of disease (mouse type II collagen) was scored as the percentage of animals within each experimental group that exhibited joint or limb inflammation on day 44 at intraperitoneal dose of 1.5 mg/kg; assay type: functional
Mus musculus [14] = assay: Tested for antiinflammatory activity on mouse type II collagen arthritis as Paw swelling of all animals in each group on day 23 at intraperitoneal dose of 6 mg/kg; assay type: functional
Mus musculus [15] = assay: Tested for antiinflammatory activity on mouse type II collagen arthritis as Paw swelling of all animals in each group on day 30 at intraperitoneal dose of 6 mg/kg; assay type: functional
Mus musculus [16] = assay: Tested for antiinflammatory activity on mouse type II collagen arthritis as Paw swelling of all animals in each group on day 30 at intraperitoneal dose of 0.75 mg/kg; assay type: functional
Mus musculus [17] = assay: Incidence of disease (mouse type II collagen) was scored as the percentage of animals within each experimental group that exhibited joint or limb inflammation on day 23 at intraperitoneal dose of 1.5 mg/kg; assay type: functional
Mus musculus [18] = assay: Tested for antiinflammatory activity on mouse type II collagen arthritis as Paw swelling of all animals in each group on day 30 at intraperitoneal dose of 0.38 mg/kg; assay type: functional
L1210 = assay: Concentration required to inhibit the growth of L1210 cells.; assay type: functional, cell-based; conditions: Mus musculus
Mus musculus [19] = assay: Incidence of disease (mouse type II collagen) was scored as the percentage of animals within each experimental group that exhibited joint or limb inflammation on day 37 at intraperitoneal dose of 3 mg/kg; assay type: functional
Mus musculus [20] = assay: Tested for antiinflammatory activity on mouse type II collagen arthritis as Paw swelling of all animals in each group on day 23 at intraperitoneal dose of 0.38 mg/kg; assay type: functional
Mus musculus [21] = assay: Incidence of disease (mouse type II collagen) was scored as the percentage of animals within each experimental group that exhibited joint or limb inflammation on day 23 at intraperitoneal dose of 0.38 mg/kg; assay type: functional
Mus musculus [22] = assay: Incidence of disease (mouse type II collagen) was scored as the percentage of animals within each experimental group that exhibited joint or limb inflammation on day 37 at intraperitoneal dose of 6 mg/kg; assay type: functional
Mus musculus [23] = assay: Incidence of disease (mouse type II collagen) was scored as the percentage of animals within each experimental group that exhibited joint or limb inflammation on day 37 at intraperitoneal dose of 0.38 mg/kg; assay type: functional
Mus musculus [24] = assay: Tested for antiinflammatory activity on mouse type II collagen arthritis as Paw swelling of all animals in each group on day 44 at intraperitoneal dose of 0.75 mg/kg; assay type: functional
Mus musculus [25] = assay: Incidence of disease (mouse type II collagen) was scored as the percentage of animals within each experimental group that exhibited joint or limb inflammation on day 23 at intraperitoneal dose of 6 mg/kg; assay type: functional
Mus musculus [26] = assay: Tested for antiinflammatory activity on mouse type II collagen arthritis as Paw swelling of all animals in each group on day 44 at intraperitoneal dose of 0.38 mg/kg; assay type: functional
Mus musculus [27] = assay: Incidence of disease (mouse type II collagen) was scored as the percentage of animals within each experimental group that exhibited joint or limb inflammation on day 30 at intraperitoneal dose of 1.5 mg/kg; assay type: functional
Mus musculus [28] = assay: Incidence of disease (mouse type II collagen) was scored as the percentage of animals within each experimental group that exhibited joint or limb inflammation on day 44 at intraperitoneal dose of 6 mg/kg; assay type: functional
Mus musculus [29] = assay: Incidence of disease (mouse type II collagen) was scored as the percentage of animals within each experimental group that exhibited joint or limb inflammation on day 30 at intraperitoneal dose of 0.75 mg/kg; assay type: functional
Mus musculus [30] = assay: Tested for antiinflammatory activity on mouse type II collagen arthritis as Paw swelling of all animals in each group on day 37 at intraperitoneal dose of 3 mg/kg; assay type: functional
Mus musculus [31] = assay: Incidence of disease (mouse type II collagen) was scored as the percentage of animals within each experimental group that exhibited joint or limb inflammation on day 30 at intraperitoneal dose of 3 mg/kg; assay type: functional
Mus musculus [32] = assay: Incidence of disease (mouse type II collagen) was scored as the percentage of animals within each experimental group that exhibited joint or limb inflammation on day 44 at intraperitoneal dose of 0.75 mg/kg; assay type: functional
Mus musculus [33] = assay: Incidence of disease (mouse type II collagen) was scored as the percentage of animals within each experimental group that exhibited joint or limb inflammation on day 44 at intraperitoneal dose of 3 mg/kg; assay type: functional
Mus musculus [34] = assay: Incidence of disease (mouse type II collagen) was scored as the percentage of animals within each experimental group that exhibited joint or limb inflammation on day 30 at intraperitoneal dose of 6 mg/kg; assay type: functional
Mus musculus [35] = assay: Incidence of disease (mouse type II collagen) was scored as the percentage of animals within each experimental group that exhibited joint or limb inflammation on day 37 at intraperitoneal dose of 1.5 mg/kg; assay type: functional
Mus musculus [36] = assay: Incidence of disease (mouse type II collagen) was scored as the percentage of animals within each experimental group that exhibited joint or limb inflammation on day 23 at intraperitoneal dose of 3 mg/kg; assay type: functional
Mus musculus [37] = assay: Incidence of disease (mouse type II collagen) was scored as the percentage of animals within each experimental group that exhibited joint or limb inflammation on day 23 at intraperitoneal dose of 0.75 mg/kg; assay type: functional
Mus musculus [38] = assay: Tested for antiinflammatory activity on mouse type II collagen arthritis as Paw swelling of all animals in each group on day 37 at intraperitoneal dose of 1.5 mg/kg; assay type: functional
Mus musculus [39] = assay: Tested for antiinflammatory activity on mouse type II collagen arthritis as Paw swelling of all animals in each group on day 23 at intraperitoneal dose of 3 mg/kg; assay type: functional
Mus musculus [40] = assay: Tested for antiinflammatory activity on mouse type II collagen arthritis as Paw swelling of all animals in each group on day 37 at intraperitoneal dose of 6 mg/kg; assay type: functional
Mus musculus [41] = assay: Tested for antiinflammatory activity on mouse type II collagen arthritis as Paw swelling of all animals in each group on day 44 at intraperitoneal dose of 6 mg/kg; assay type: functional
Mus musculus [42] = assay: Tested for antiinflammatory activity on mouse type II collagen arthritis as Paw swelling of all animals in each group on day 44 at intraperitoneal dose of 1.50 mg/kg; assay type: functional; conditions: dose 1.5 mg/kg
Mus musculus [43] = assay: Tested for antiinflammatory activity on mouse type II collagen arthritis as Paw swelling of all animals in each group on day 23 at intraperitoneal dose of 1.50 mg/kg; assay type: functional; conditions: dose 1.5 mg/kg
Mus musculus [44] = assay: Tested for antiinflammatory activity on mouse type II collagen arthritis as Paw swelling of all animals in each group on day 37 at intraperitoneal dose of 1.50 mg/kg; assay type: functional; conditions: dose 1.5 mg/kg
Mus musculus [45] = assay: Tested for antiinflammatory activity on mouse type II collagen arthritis as Paw swelling of all animals in each group on day 30 at intraperitoneal dose of 1.50 mg/kg; assay type: functional; conditions: dose 1.5 mg/kg
Mus musculus [46] = assay: Tested for antiinflammatory activity on mouse type II collagen arthritis as Paw swelling of all animals in each group on day 23 at intraperitoneal dose of 8 mg/kg; assay type: functional
Mus musculus [47] = assay: Incidence of disease (mouse type II collagen) was scored as the percentage of animals within each experimental group that exhibited joint or limb inflammation on day 44 at intraperitoneal dose of 8 mg/kg; assay type: functional
Mus musculus [48] = assay: Incidence of disease (mouse type II collagen) was scored as the percentage of animals within each experimental group that exhibited joint or limb inflammation on day 23 at intraperitoneal dose of 8 mg/kg; assay type: functional
Mus musculus [49] = assay: Tested for antiinflammatory activity on mouse type II collagen arthritis as Paw swelling of all animals in each group on day 37 at intraperitoneal dose of 8 mg/kg; assay type: functional
Mus musculus [50] = assay: Incidence of disease (mouse type II collagen) was scored as the percentage of animals within each experimental group that exhibited joint or limb inflammation on day 30 at intraperitoneal dose of 8 mg/kg; assay type: functional
Mus musculus [51] = assay: Tested for antiinflammatory activity on mouse type II collagen arthritis as Paw swelling of all animals in each group on day 44 at intraperitoneal dose of 8 mg/kg; assay type: functional
Mus musculus [52] = assay: Tested for antiinflammatory activity on mouse type II collagen arthritis as Paw swelling of all animals in each group on day 30 at intraperitoneal dose of 8 mg/kg; assay type: functional
Mus musculus [53] = assay: Incidence of disease (mouse type II collagen) was scored as the percentage of animals within each experimental group that exhibited joint or limb inflammation on day 37 at intraperitoneal dose of 8 mg/kg; assay type: functional

IC50 (L1210): 6.5 nM
SMILES: CCCc1c(CNc2ccc(C(=O)NC(CCC(=O)O)C(=O)O)cc2)cnc2nc(N)nc(N)c12 (stereo unspecified)
Paw swelling (Mus musculus [1]): 2.24 mm
Animals (Mus musculus [2]): 0%
Animals (Mus musculus [3]): 0%
Paw swelling (Mus musculus [4]): 2.15 mm
Paw swelling (Mus musculus [5]): 2.2 mm
Paw swelling (Mus musculus [6]): 2.12 mm
Animals (Mus musculus [7]): 88%
Paw swelling (Mus musculus [8]): 2.14 mm
Paw swelling (Mus musculus [9]): 2.22 mm
Paw swelling (Mus musculus [10]): 2.13 mm
IC50 [11]: 8.2 nM
Paw swelling (Mus musculus [12]): 2.16 mm
Animals (Mus musculus [13]): 0%
Paw swelling (Mus musculus [14]): 2.13 mm
Paw swelling (Mus musculus [15]): 2.23 mm
Paw swelling (Mus musculus [16]): 2.17 mm
Animals (Mus musculus [17]): 0%
Paw swelling (Mus musculus [18]): 2.13 mm
Animals (Mus musculus [19]): 14%
Paw swelling (Mus musculus [20]): 2.11 mm
Animals (Mus musculus [21]): 0%
Animals (Mus musculus [22]): 25%
Animals (Mus musculus [23]): 75%
Paw swelling (Mus musculus [24]): 2.22 mm
Animals (Mus musculus [25]): 0%
Paw swelling (Mus musculus [26]): 2.57 mm
Animals (Mus musculus [27]): 0%
Animals (Mus musculus [28]): 0%
Animals (Mus musculus [29]): 0%
Paw swelling (Mus musculus [30]): 2.23 mm
Animals (Mus musculus [31]): 14%
Animals (Mus musculus [32]): 50%
Animals (Mus musculus [33]): 29%
Animals (Mus musculus [34]): 25%
Animals (Mus musculus [35]): 0%
Animals (Mus musculus [36]): 0%
Animals (Mus musculus [37]): 0%
Paw swelling (Mus musculus [38]): 2.19 mm
Paw swelling (Mus musculus [39]): 2.12 mm
Paw swelling (Mus musculus [40]): 2.22 mm
Paw swelling (Mus musculus [41]): 2.11 mm

SMILES: Nc1nc(N)c2cc(CNc3ccc(C(=O)NC(CCC(=O)O)C(=O)O)cc3)cnc2n1 (stereo unspecified)
Animals (Mus musculus [2]): 38%
Paw swelling (Mus musculus [10]): 2.14 mm
Paw swelling (Mus musculus [12]): 2.23 mm
Animals (Mus musculus [13]): 25%
Paw swelling (Mus musculus [16]): 2.19 mm
Paw swelling (Mus musculus [42]): 2.21 mm
Animals (Mus musculus [17]): 0%
Paw swelling (Mus musculus [24]): 2.28 mm
Animals (Mus musculus [27]): 12%
Animals (Mus musculus [29]): 12%
Animals (Mus musculus [32]): 62%
Paw swelling (Mus musculus [43]): 2.1 mm
Paw swelling (Mus musculus [44]): 2.17 mm
Animals (Mus musculus [35]): 12%
Animals (Mus musculus [37]): 0%
Paw swelling (Mus musculus [45]): 2.16 mm

SMILES: Nc1nc(N)c2cc(CCc3ccc(C(=O)NC(CCC(=O)O)C(=O)O)s3)cnc2n1 (stereo unspecified)
Paw swelling (Mus musculus [46]): 2.13 mm
Animals (Mus musculus [47]): 88%
Animals (Mus musculus [48]): 0%
Paw swelling (Mus musculus [49]): 2.6 mm
Animals (Mus musculus [50]): 25%
Paw swelling (Mus musculus [51]): 2.63 mm
Paw swelling (Mus musculus [52]): 2.19 mm
Animals (Mus musculus [53]): 88%

— ChEMBL document CHEMBL1129930, “Analogues of methotrexate in rheumatoid arthritis. 2. Effects of 5-deazaaminopterin, 5,10-dideazaaminopterin, and analogues on type II collagen-induced arthritis in mice” (J Med Chem, 1997)
